{"source": "patent US20150342968A1", "about": "“STABLE PHARMACEUTICAL COMPOSITION FOR TREATING OSTEOPOROSIS” (LANDSTEINER SCIENTIFIC S.A. DE C.V., priority 2012, published 2015)", "key": {"[1]": {"experiment": "Evaluation of the stability of vitamin D3 in tablets of composition in Table 1", "type": "physicochemical", "description": "(§1) Two stability tests of vitamin D3 and risedronate sodium were performed at different conditions by subjecting the tablets that were prepared according to the composition in Table 1. The conditions were as follows:\nEvaluation Of The Stability Of Vitamin D3\n(§2) Two batches of the composition were subjected to different conditions to evaluate the stability of vitamin D3 and risedronate sodium. The conditions were the following: 30° C./65% RH, 40° C./75% RH and Cycled 40° C./75% RH-Cooling (2°-8° C.). The samples were submitted for 4 weeks and the following results were obtained."}, "[2]": {"experiment": "Dissolution buffer stage pH 6.8 of tablets of composition in Table 1", "type": "physicochemical", "description": "as §1\nIt is evident that the risedronate sodium dissolves quickly in a medium with pH 6.8, obtaining more than 100% in the first 10 minutes."}, "[3]": {"experiment": "Dissolution acid stage (gastro-resistance) of tablets of composition in Table 1", "type": "physicochemical", "description": "as §1\nThe product complies with the gastro-resistant stage, because it has an enteric coating to protect the mucous membranes while it passes through the gastrointestinal system."}, "[4]": {"conditions": "cited from earlier work"}, "[5]": {"conditions": "cited from earlier work", "remark": "listed apart in the source"}, "[6]": {"experiment": "Evaluation of the stability of risedronate sodium in tablets of composition in Table 1", "type": "physicochemical", "description": "as §1, §2\nEvaluation of the Stability of Risedronate Sodium"}}, "note": "Several values for one entry are separate records, joined by “and”; a condition that tells them apart may be missing. Equal values may be shown once."}
{"smiles": "C=C1CC[C@H](O)C/C1=C/C=C1\\CCC[C@]2(C)[C@@H]([C@H](C)CCCC(C)C)CC[C@@H]12", "note": "[Vitamin D3, cholecalciferol]", "values": [{"measurement": "Vitamin D3 rating (stability)", "setting": "[1]; Test 1, week 0, 30° C./65% RH", "value": 100.00, "unit": "%"}, {"measurement": "Vitamin D3 rating (stability)", "setting": "[1]; Test 1, week 0, 40° C./75% RH", "value": 100.00, "unit": "%"}, {"measurement": "Vitamin D3 rating (stability)", "setting": "[1]; Test 1, week 0, Cycled 40° C./75% RH-cooling", "value": 100.00, "unit": "%"}, {"measurement": "Vitamin D3 rating (stability)", "setting": "[1]; Test 1, week 1, 30° C./65% RH", "value": 102.02, "unit": "%"}, {"measurement": "Vitamin D3 rating (stability)", "setting": "[1]; Test 1, week 1, 40° C./75% RH", "value": 98.34, "unit": "%"}, {"measurement": "Vitamin D3 rating (stability)", "setting": "[1]; Test 1, week 1, Cycled 40° C./75% RH-cooling", "value": 98.69, "unit": "%"}, {"measurement": "Vitamin D3 rating (stability)", "setting": "[1]; Test 1, week 2, 30° C./65% RH", "value": 99.20, "unit": "%"}, {"measurement": "Vitamin D3 rating (stability)", "setting": "[1]; Test 1, week 2, 40° C./75% RH", "value": 98.12, "unit": "%"}, {"measurement": "Vitamin D3 rating (stability)", "setting": "[1]; Test 1, week 2, Cycled 40° C./75% RH-cooling", "value": 97.90, "unit": "%"}, {"measurement": "Vitamin D3 rating (stability)", "setting": "[1]; Test 1, week 4, 30° C./65% RH", "value": 96.39, "unit": "%"}, {"measurement": "Vitamin D3 rating (stability)", "setting": "[1]; Test 1, week 4, 40° C./75% RH", "value": 96.03, "unit": "%"}, {"measurement": "Vitamin D3 rating (stability)", "setting": "[1]; Test 1, week 4, Cycled 40° C./75% RH-cooling", "value": 96.09, "unit": "%"}, {"measurement": "Vitamin D3 rating (stability)", "setting": "[1]; Test 2, week 0, 30° C./65% RH", "value": 100.00, "unit": "%"}, {"measurement": "Vitamin D3 rating (stability)", "setting": "[1]; Test 2, week 0, 40° C./75% RH", "value": 100.00, "unit": "%"}, {"measurement": "Vitamin D3 rating (stability)", "setting": "[1]; Test 2, week 0, Cycled 40° C./75% RH-cooling", "value": 100.00, "unit": "%"}, {"measurement": "Vitamin D3 rating (stability)", "setting": "[1]; Test 2, week 1, 30° C./65% RH", "value": 97.34, "unit": "%"}, {"measurement": "Vitamin D3 rating (stability)", "setting": "[1]; Test 2, week 1, 40° C./75% RH", "value": 99.62, "unit": "%"}, {"measurement": "Vitamin D3 rating (stability)", "setting": "[1]; Test 2, week 1, Cycled 40° C./75% RH-cooling", "value": 95.55, "unit": "%"}, {"measurement": "Vitamin D3 rating (stability)", "setting": "[1]; Test 2, week 2, 30° C./65% RH", "value": 96.93, "unit": "%"}, {"measurement": "Vitamin D3 rating (stability)", "setting": "[1]; Test 2, week 2, 40° C./75% RH", "value": 97.80, "unit": "%"}, {"measurement": "Vitamin D3 rating (stability)", "setting": "[1]; Test 2, week 2, Cycled 40° C./75% RH-cooling", "value": 96.31, "unit": "%"}, {"measurement": "Vitamin D3 rating (stability)", "setting": "[1]; Test 2, week 4, 30° C./65% RH", "value": 94.79, "unit": "%"}, {"measurement": "Vitamin D3 rating (stability)", "setting": "[1]; Test 2, week 4, 40° C./75% RH", "value": 96.32, "unit": "%"}, {"measurement": "Vitamin D3 rating (stability)", "setting": "[1]; Test 2, week 4, Cycled 40° C./75% RH-cooling", "value": 94.79, "unit": "%"}, {"measurement": "decrease in the vitamin D3 rating", "setting": "[1]; over the four weeks under the different conditions", "value": 5.96, "unit": "%"}]}
{"smiles": "O=P(O)(O)C(O)(Cc1cccnc1)P(=O)(O)O", "note": "[Risedronate sodium, risedronate sodium]", "values": [{"measurement": "Dissolution buffer stage, dissolved", "setting": "[2]; pH 6.8, 5 min", "value": 94.08, "unit": "%"}, {"measurement": "Dissolution buffer stage, dissolved", "setting": "[2]; pH 6.8, 10 min", "value": "more than 100%"}, {"measurement": "Dissolution buffer stage, dissolved", "setting": "[2]; pH 6.8, 10 min, listed as Risedronate Sodium 35 mg", "value": 100.93, "unit": "%"}, {"measurement": "Dissolution buffer stage, dissolved", "setting": "[2]; pH 6.8, 15 min", "value": 100.84, "unit": "%"}, {"measurement": "Dissolution buffer stage, dissolved", "setting": "[2]; pH 6.8, 20 min", "value": 100.94, "unit": "%"}, {"measurement": "Dissolution buffer stage, dissolved", "setting": "[2]; pH 6.8, 30 min", "value": 100.12, "unit": "%"}, {"measurement": "Dissolution buffer stage, dissolved", "setting": "[2]; pH 6.8, 45 min", "value": 100.48, "unit": "%"}, {"measurement": "Risedronate sodium Acid Stage % Dissolved", "setting": "[3]; individual samples S1-S6, specification no more than 10.0%", "value": "0.97% and 0.56% and 0.80% and 0.95% and 1.19% and 0.71%"}, {"measurement": "Risedronate sodium Acid Stage % Dissolved, Maximum", "setting": "[3]; maximum of S1-S6", "value": 1.19, "unit": "%"}, {"measurement": "Risedronate sodium Acid Stage % Dissolved, Mean", "setting": "[3]; mean of S1-S6", "value": 0.86, "unit": "%"}, {"measurement": "Risedronate sodium Acid Stage % Dissolved, Minimum", "setting": "[3]; minimum of S1-S6", "value": 0.56, "unit": "%"}, {"measurement": "plasmatic protein binding", "setting": "[4]", "value": 24, "unit": "%"}, {"measurement": "injected dose recovered in the urine", "setting": "[5]; after 28 days", "value": 85, "unit": "%"}, {"measurement": "Tmax", "setting": "[5]; after an oral dose", "value": "~1", "unit": "h"}, {"measurement": "part of the absorbed dose excreted in the urine", "setting": "[5]; first 24 hours", "value": "One half"}, {"measurement": "mean volume of distribution at steady state equilibrium", "setting": "[5]; humans", "value": 6.3, "unit": "L/kg"}, {"measurement": "Risedronate sodium stability, Final", "setting": "[6]; Test 1, final (4 weeks)", "value": 100.66, "unit": "%"}, {"measurement": "Risedronate sodium stability, Initial", "setting": "[6]; Test 1, initial", "value": 102.55, "unit": "%"}, {"measurement": "Risedronate sodium stability, Final", "setting": "[6]; Test 2, final (4 weeks)", "value": 96.75, "unit": "%"}, {"measurement": "Risedronate sodium stability, Initial", "setting": "[6]; Test 2, initial", "value": 100.99, "unit": "%"}]}
